Test system: 873145-292-R-J1-PDC complex spheroid viability
Assay: Anticancer human tumor 873145-292-R-J1-PDC patient-derived renal clear cell carcinoma cell line growth inhibition [POLQ]
Conditions: for IC50: curve of first compound; for viability, T/C: stronger effect = lower value; active means viability on the fitted dose curve at most 10% of control; inactive means the rest
How it was run: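 Complex spheroid viability model combining PDC tumour cells with endothelial (HUVEC) and MSC stromal cells. Novobiocin, ART-558 or RP6685 were tested singly and in combination with standard and investigational anticancer drugs. Each was titrated in half-log steps from near clinical Cmax, or from 10 microM where Cmax was unknown.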

[1] = second compound 0.0316 µM, first compound 0.0316 µM
[2] = second compound 0.0316 µM, first compound 0.1 µM
[3] = second compound 0.0316 µM, first compound 0.316 µM
[4] = second compound 0.0316 µM, first compound 1 µM
[5] = second compound 0.0316 µM, first compound 3.16 µM
[6] = second compound 0.0316 µM, first compound 10 µM
[7] = second compound 0.1 µM, first compound 0.0316 µM
[8] = second compound 0.1 µM, first compound 0.1 µM
[9] = second compound 0.1 µM, first compound 0.316 µM
[10] = second compound 0.1 µM, first compound 1 µM
[11] = second compound 0.1 µM, first compound 3.16 µM
[12] = second compound 0.1 µM, first compound 10 µM
[13] = second compound 0.316 µM, first compound 0.0316 µM
[14] = second compound 0.316 µM, first compound 0.1 µM
[15] = second compound 0.316 µM, first compound 0.316 µM
[16] = second compound 0.316 µM, first compound 1 µM
[17] = second compound 0.316 µM, first compound 3.16 µM
[18] = second compound 0.316 µM, first compound 10 µM
[19] = second compound 1 µM, first compound 0.0316 µM
[20] = second compound 1 µM, first compound 0.1 µM
[21] = second compound 1 µM, first compound 0.316 µM
[22] = second compound 1 µM, first compound 1 µM
[23] = second compound 1 µM, first compound 3.16 µM
[24] = second compound 1 µM, first compound 10 µM
[25] = second compound 3.16 µM, first compound 0.0316 µM
[26] = second compound 3.16 µM, first compound 0.1 µM
[27] = second compound 3.16 µM, first compound 0.316 µM
[28] = second compound 3.16 µM, first compound 1 µM
[29] = second compound 3.16 µM, first compound 3.16 µM
[30] = second compound 3.16 µM, first compound 10 µM
[31] = second compound 10 µM, first compound 0.0316 µM
[32] = second compound 10 µM, first compound 0.1 µM
[33] = second compound 10 µM, first compound 0.316 µM
[34] = second compound 10 µM, first compound 1 µM
[35] = second compound 10 µM, first compound 3.16 µM
[36] = second compound 10 µM, first compound 10 µM
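Further: spheroids exposed to compounds for 7 days before viability readout.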
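Wherever viability, T/C is given: luminescence signal used as surrogate for viable cell content; 100% = DMSO vehicle control viability.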

CC1COCCN1c1cc(C2(O)CC3CCC(C2)O3)c2cnn(-c3ccn[nH]3)c2n1 (stereo unspecified) + COC1C(OC(N)=O)C(O)C(Oc2ccc3c(O)c(NC(=O)c4ccc(O)c(CC=C(C)C)c4)c(=O)oc3c2C)OC1(C)C
423 nM: IC50 (second compound 0.0316 µM)
562 nM: IC50 (second compound 0.1 µM)
inactive: viability, T/C [1] 90.3% | viability, T/C [2] 71.8% | viability, T/C [3] 53.9% | viability, T/C [4] 40.4% | viability, T/C [5] 38.6% | viability, T/C [6] 37.2% | viability, T/C [7] 85.8% | viability, T/C [8] 67.2% | viability, T/C [9] 57.1% | viability, T/C [10] 43.6% | viability, T/C [11] 39.3% | viability, T/C [12] 38.5% | viability, T/C [13] 86.3% | viability, T/C [14] 72.9% | viability, T/C [15] 50.2% | viability, T/C [16] 40.2% | viability, T/C [17] 49.5% | viability, T/C [18] 37.7% | viability, T/C [19] 84.3% | viability, T/C [20] 68.6% | viability, T/C [21] 58.5% | viability, T/C [22] 38.9% | viability, T/C [23] 36.3% | viability, T/C [24] 37% | viability, T/C [25] 93.8% | viability, T/C [26] 73.5% | viability, T/C [27] 52.9% | viability, T/C [28] 38.3% | viability, T/C [29] 36.2% | viability, T/C [30] 38.5% | viability, T/C [31] 87.7% | viability, T/C [32] 71.9% | viability, T/C [33] 58.3% | viability, T/C [34] 45.6% | viability, T/C [35] 41.6% | viability, T/C [36] 40.9%
691 nM: IC50 (second compound 10 µM)
362 nM: IC50 (second compound 3.16 µM)
311 nM: IC50 (second compound 0.316 µM)
484 nM: IC50 (second compound 1 µM)

O=C(Nc1ccc(O)c(NS(=O)(=O)c2ccc(F)cc2)c1)c1ccc(-c2ccccc2)cc1 + COC1C(OC(N)=O)C(O)C(Oc2ccc3c(O)c(NC(=O)c4ccc(O)c(CC=C(C)C)c4)c(=O)oc3c2C)OC1(C)C
inactive: viability, T/C [1] 113% | viability, T/C [2] 99.8% | viability, T/C [3] 95.7% | viability, T/C [4] 101% | viability, T/C [5] 98.5% | viability, T/C [6] 101% | viability, T/C [7] 99.9% | viability, T/C [8] 106% | viability, T/C [9] 88.9% | viability, T/C [10] 94.8% | viability, T/C [11] 97.6% | viability, T/C [12] 101% | viability, T/C [13] 105% | viability, T/C [14] 92.7% | viability, T/C [15] 96.2% | viability, T/C [16] 98.6% | viability, T/C [17] 110% | viability, T/C [18] 98.1% | viability, T/C [19] 106% | viability, T/C [20] 103% | viability, T/C [21] 91.6% | viability, T/C [22] 97.2% | viability, T/C [23] 104% | viability, T/C [24] 91.1% | viability, T/C [25] 97.3% | viability, T/C [26] 94.8% | viability, T/C [27] 102% | viability, T/C [28] 92.9% | viability, T/C [29] 99.2% | viability, T/C [30] 109% | viability, T/C [31] 105% | viability, T/C [32] 95.2% | viability, T/C [33] 92.5% | viability, T/C [34] 100% | viability, T/C [35] 108% | viability, T/C [36] 108%
> 10000 nM: IC50 (second compound 0.0316 µM) | IC50 (second compound 0.1 µM) | IC50 (second compound 0.316 µM) | IC50 (second compound 1 µM) | IC50 (second compound 3.16 µM) | IC50 (second compound 10 µM)

CC(=O)O[C@H]1C(=O)[C@@]2(C)[C@H]([C@H](OC(=O)c3ccccc3)[C@]3(O)C[C@H](OC(=O)[C@H](O)[C@@H](NC(=O)c4ccccc4)c4ccccc4)C(C)=C1C3(C)C)[C@]1(OC(C)=O)CO[C@@H]1C[C@@H]2O + Cc1cccc(N(C)C(=O)C2C(O)CCN2c2nc(C)cc(C(F)(F)F)c2C#N)c1
> 3000 nM: IC50 (second compound 0.0316 µM) | IC50 (second compound 0.1 µM) | IC50 (second compound 0.316 µM) | IC50 (second compound 1 µM) | IC50 (second compound 3.16 µM) | IC50 (second compound 10 µM)
inactive: viability, T/C (second compound 0.0316 µM, first compound 0.00949 µM) 92.4% | viability, T/C (second compound 0.0316 µM, first compound 0.03 µM) 75.9% | viability, T/C (second compound 0.0316 µM, first compound 0.0949 µM) 74.7% | viability, T/C (second compound 0.0316 µM, first compound 0.3 µM) 69.1% | viability, T/C (second compound 0.0316 µM, first compound 0.949 µM) 72.8% | viability, T/C (second compound 0.0316 µM, first compound 3 µM) 74.9% | viability, T/C (second compound 0.1 µM, first compound 0.00949 µM) 92% | viability, T/C (second compound 0.1 µM, first compound 0.03 µM) 99% | viability, T/C (second compound 0.1 µM, first compound 0.0949 µM) 67% | viability, T/C (second compound 0.1 µM, first compound 0.3 µM) 77.7% | viability, T/C (second compound 0.1 µM, first compound 0.949 µM) 68.6% | viability, T/C (second compound 0.1 µM, first compound 3 µM) 66.3% | viability, T/C (second compound 0.316 µM, first compound 0.00949 µM) 94.5% | viability, T/C (second compound 0.316 µM, first compound 0.03 µM) 82.4% | viability, T/C (second compound 0.316 µM, first compound 0.0949 µM) 76.2% | viability, T/C (second compound 0.316 µM, first compound 0.3 µM) 74.1% | viability, T/C (second compound 0.316 µM, first compound 0.949 µM) 76.5% | viability, T/C (second compound 0.316 µM, first compound 3 µM) 70.3% | viability, T/C (second compound 1 µM, first compound 0.00949 µM) 79.7% | viability, T/C (second compound 1 µM, first compound 0.03 µM) 84.3% | viability, T/C (second compound 1 µM, first compound 0.0949 µM) 81.8% | viability, T/C (second compound 1 µM, first compound 0.3 µM) 77.8% | viability, T/C (second compound 1 µM, first compound 0.949 µM) 73.3% | viability, T/C (second compound 1 µM, first compound 3 µM) 69.3% | viability, T/C (second compound 3.16 µM, first compound 0.00949 µM) 84.7% | viability, T/C (second compound 3.16 µM, first compound 0.03 µM) 85.6% | viability, T/C (second compound 3.16 µM, first compound 0.0949 µM) 72.5% | viability, T/C (second compound 3.16 µM, first compound 0.3 µM) 71.5% | viability, T/C (second compound 3.16 µM, first compound 0.949 µM) 80.3% | viability, T/C (second compound 3.16 µM, first compound 3 µM) 80.4% | viability, T/C (second compound 10 µM, first compound 0.00949 µM) 75.4% | viability, T/C (second compound 10 µM, first compound 0.03 µM) 80.3% | viability, T/C (second compound 10 µM, first compound 0.0949 µM) 75.8% | viability, T/C (second compound 10 µM, first compound 0.3 µM) 65.9% | viability, T/C (second compound 10 µM, first compound 0.949 µM) 75.6% | viability, T/C (second compound 10 µM, first compound 3 µM) 71.2%

From PubChem BioAssay AID1963834 (Molecular Pharmacology Branch, DTP, NCI, 2024)
